Literature values, collected in patent publication US20110184024A1, “Pharmaceutical Composition Containing Esomeprazole” (CTC BIO, INC., priority 2007, published 2011).

Conditions: stored for two months at 25° C./60% RH

total impurities after storage: about 1%
SMILES: COc1ccc2nc([S@@+]([O-])Cc3ncc(C)c(OC)c3C)[nH]c2c1 [esomeprazole free base, (S)-5-methoxy-2-[(4-methoxy-3,5-dimethylpyridin-2-yl)methylsulfinyl]-3H-benzoimidazole]
